Reference: US20040248208A1, “Screening method” (priority 2001, published 2004)

How the values were obtained:
Type in all cases: cell-based
TGR4 [1] = target: T1, TGR4 (Homo sapiens, UniProt Q9H1C0); assay: Intracellular calcium ion mobilization activity in TGR4-expressing CHO cells (FLIPR); settings: for EC50: TGR4-expressing CHO cells, 100% = reaction when 2 × 10^−6 M farnesyl 2-phosphate was added, read-out: Intracellular Ca^2+ mobilization activity (EC50); for concentration dependency of intracellular calcium ion mobilization activity: CHO-TGR4 (FIG. 16)
T1 construct: expressed in transfected cells
Method: Using TGR4 expression vector prepared in EXAMPLE 1, according to the publicly known method, the CHO cells stably expressing TGR4, which is designated CHO-TGR4, were prepared. CHO-TGR4 or CHO-mock cells, in which no receptor gene is introduced, was seeded to 96-well plate of Black plate, Clear bottom available from Costar at the concentration of 30,000 cells/well. After cultivation at 37° C. in the presence of 5% CO2 for overnight, the cells were used for assay. For washing buffer, Hank's balanced salt solution (HBSS, GibcoBRL) supplemented with 20 mM HEPES (pH7.4) and 2.5 mM probeneside (Sigma) was prepared. For sample buffer, the washing buffer supplemented with 0.1% bovine serum albumin (BSA, Sigma) was used. The washing buffer supplemented with 1% FBS, 4 μM Fluo 3-AM (Wako Pure Chemicals) and 0.04% Pluronic acid (Molecular Probes) was used as a dye loading solution. After discarding the medium, adding the dye loading solution and incubating the cells at 37° C. for 1 hour, using the plate washer, the cells were washed with the washing buffer. The cells were set to Fluorometric Imaging Plate Reader (FLIPR, Molecular Device) and the change of intracellular calcium ion concentration during three minutes after addition of sample was measured. FPP and LPA were added to sample to make a final concentration 2.5 μM each.
As well as the method described in EXAMPLE 7, using TGR4-expressing CHO cells and mock CHO cells, a study on concentration dependency of intracellular calcium ion mobilization activity by substances associated with various phospholipids compounds was made. For substances associated with various phospholipids compounds, geranylgeranyl 2-phosphate, farnesyl 2-phosphate, geranyl 2-phosphate, lysophosphatidic acid, sphingosine 1-phosphate, nordeoxycholic acid, deoxycholic acid, geranylgeranyol, farnesol were used.

TGR4-GFP fusion protein = target: T2, TGR4-GFP fusion protein (Homo sapiens, UniProt Q9H1C0); assay: Intracellular translocation of TGR4-GFP fusion protein expressed in CHO cells; settings: 10^−6 M, thirty minutes after addition
T2 construct: expressed in transfected cells; host or cells: CHO-mock cells (CHO dhfr- transformed with pAKKO-111H), transient, Lipofectamine 2000
Source text: Expression plasmid wherein fusion protein that cDNA encoding Green Fluorescent protein (GFP) isolated from Aequorea coerulescens was ligated to the C-terminus of TGR4 by adjusting a translation frame, was constructed. As GFP cDNA, a fragment excised from GFP-expressing vector pQBI25 (Takara Shuzo) was used. The stop codon of TGR4 was modified to the recognition sequence of restriction enzyme NheI by the PCR method. GFP fragment was ligated to the terminus, and the obtained fragment was inserted into the expression vector pAKKO-111H. The thus obtained plasmid, which is an expression vector for fusion protein of TGR4 and GFP (hereinafter referred to as TGR4-GFP) was transfected to CHO-mock cells by the following method. The CHO-mock cells were suspended in growth medium (DMEM (Dulbecco's Modified Eagle Medium) (GIBCO BRL) supplemented with 10% fetal bovine serum (GIBCO BRL)), seeded on Lab-Tek II coverglass chamber (Nalgen Nunc), which has 4 chambers, at the concentration of 0.6×10^5 cells/chamber. After cultivation at 37° C. in the presence of 5% CO2 for overnight, transfection was carried out. For transfection, Lipofectamine™ 2000 Reagent (GIBCO BRL) was used. Firstly, 2 μl of Lipofectamine™ 2000 Reagent and 50 μl of OPTI-MEM-I (GIBCO BRL) were admixed and stood for 20 minutes at room temperature to form a complex of DNA with lipofectamine. […]

TGR4 [2] = target: T1, TGR4; assay: cAMP production in TGR4-expressing CHO cells; settings: for cAMP production increasing activity dependent on concentration: CHO-TGR4 (FIG. 18); for level of cAMP production: final concentration 2 μM, 30 minutes, CHO-TGR4 versus CHO-mock (FIGS. 7 and 8)
Method: The CHO-TGR4 prepared in EXAMPLE 2, or the CHO-mock cells, in which no receptor gene is introduced, were seeded on 96-well plate at the concentration of 25,000 cells/well. After cultivation at 37° C. in the presence of 5% CO2 for overnight, the cells were used for assay. For the sample buffer, HBSS supplemented with 0.1% BSA and 0.2 mM IBMX (Sigma) was used. The cells were washed twice with the sample buffer and pre-incubated at 37° C. for 30 minutes. Thereafter, the cells were also washed twice and incubated at 37° C. for 30 minutes after adding of sample. Farnesyl 2-phosphate or lysophophatidic acid was added to the sample to make a finalconcentration 2 μM. After incubation with the sample, a level of cAMP production was measured using cAMP Screen System (ABI).
As well as the method described in EXAMPLE 8, using TGR4-expressing CHO cells and mock CHO cells, a study on concentration dependency of cAMP production increasing activity by substances associated with various phospholipids compounds was made. […] For abbreviation of compounds, see EXAMPLE 9.

TGR4 [3] = target: T1, TGR4; assay: CRE-luciferase reporter gene assay in CHO cells transiently expressing TGR4; settings: 4 hours, TGR4 and Gi co-transfected with pCRE-Luc (FIG. 4)
Method: The expression vector plasmid pAK-TGR4 or pAK-Gi, which was prepared by inserting TGR4 cDNA or suppressive G protein a subunit Gi cDNA into pAKKO-111H, the expression plasmid vector for animal cells (the same plasmid vector as pAKKO-111H described in Biochem. Biophys. Acta by Hinuma, S. et al., Vol. 1219, pp. 251-259, 1994), and original pAKKO-111H, in which no specific gene was inserted, were transfected into the CHO cells by the following method.
Using these vectors, Escherichia coli JM109 was transformed. A colony obtained was isolated and cultured for preparation of plasmid with QIAGEN Plasmid Maxi Kit (Qiagen). Further, plasmid of pCRE-Luc (CLONTECH), in which luciferase gene is ligated as a reporter downstream cAMP response element (CRE), was prepared in a similar method. The CHO-mock cells, wherein the CHO (dhfr^−0 cells were transformed with pAKKO-111H, were seeded in 96-well black plate (Costar) at 40,000 cells/well and 100 μl of culture volume, and were cultured for overnight. For a culture on the plate, DMEM (Dulbecco's modified Eagle's medium, CibcoBRL) supplemented with nothing but 10% fetal bovine serum was used. In order to detect an increase of expression level of the reporter gene more clearly, the pAK-Gi was co-transfected with the pAK-TGR4. Each plasmid was added to 240 μl of Opti-MEM-I (GibcoBRL) at the ratio of 7:3:1 of pAK-TGR4:pAK-Gi:reporter plasmid pCRE-Luc. This solution was mixed with the same volume of solution wherein 10 μl of Lipofectamine 2000 was added to 240 μl of Opti-MEM-I to form a complex of liposome and plasmid according to the method described in the manual attached to Lipofectamine 2000. To culture of CHO-mock cells, 25 μl/well of the above-mentioned solution was added. After 4 hours at 37° C., a culture broth was replaced to an assay buffer (DMEM supplemented with 0.1% bovine serum albumin) to be serum-free for introduction of the plasmid. Then, these cells were cultured at 37° C. under the condition of 5% CO2 for overnight.
To the CHO-mock cells transfected as described above, geranylgeranyl 2-phosphate (GGPP, Sigma), farnesyl 2-phosphate (FPP, Sigma) and lysophosphatidic acid (LPA, Sigma) were added to the concentration of 1 μM, 0.1 μM, and […], respectively, and incubated at 37° C. under the condition of 5% CO2 for 4 hours. After discarding the supernatant, 50 μl of Picagene LT2.0, the substrate for assaying luciferase activity were added, and luminescence level of luciferase was measured using plate reader (ARVO sx multilabel counter, Wallac).

TGR4 [4] = target: T1, TGR4; assay: Activation of p44/42 MAP kinase in human TGR4-expressing CHO cells; settings: 0.1 μM; TGR4-expressing CHO cells versus mock cells
Method: Human TGR4-expressing CHO cells and mock cells were seeded on 6-well plate at the concentration of 3×10^5 cells/well and cultured for overnight. For removal of serum, the medium was replaced with α-MEM including no nucleic acid supplemented with 0.1% BSA, and the cells were further incubated for overnight. Until just before assay, preincubation using the same medium for 2 hours was carried out. By adding 0.1 μM farnesyl 2-phosphate to the medium, the treatment was started. With respect to each given time, the medium was removed by aspiration and the reaction was terminated by addition of sumple buffer for SDS-PAGE. In accordance with conventional manner, SDS-PAGE was done and then the proteins were transferred to nitrocellulose membrane. Following the method described in the manual of Phospho Plus p44/42 MAPK (Thr202/Tyr204) Antibody Kit (Cell Signaling), detection of p44/42 MAP kinase was performed. […] Thus it became clear that the enzyme was activated.

Row | Compound | EC50 (TGR4 [1]) [nM] | further results
1 | CCCCCCCCCCCCC/C=C/[C@@H](O)[C@@H](N)COP(=O)(O)O [Sphingosine 1-phosphate] | 1500 | 
2 | CC(C)=CCC/C(C)=C/CCC(=O)O [Geranyl acetic acid] | > 2500 | 
3 | CC(C)=CCC/C(C)=C/CN [Geranylamine] | > 2500 | 
4 | CC(C)=CCC/C(C)=C/CC/C(C)=C/COP(=O)(O)OP(=O)(O)O [Farnesyl 2-phosphate, farnesyl 2-phosphate] | 29 | concentration dependency of intracellular calcium ion mobilization activity (TGR4 [1]): activity dependent on concentration was perceived; intracellular calcium ion mobilization activity (TGR4 [1]; final concentration 2.5 μM, CHO-TGR4 versus CHO-mock (FIGS. 5 and 6)): increased in the manner specific to CHO-TGR4; translocation of TGR4-GFP fluorescence from cell membrane (TGR4-GFP fusion protein): translocated to cytoplasm; cAMP production increasing activity dependent on concentration (TGR4 [2]): activity dependent on concentration was perceived; level of cAMP production (TGR4 [2]): increased in the manner specific to CHO-TGR4; luciferase activity (TGR4 [3]; 0.1 μM): increase of luciferase activity was detected; luciferase activity (TGR4 [3]; 1 μM): increase of luciferase activity was detected; phosphorylation of p44/42 MAP kinase (TGR4 [4]): phosphorylation of MAP kinase specific to human TGR-expressing CHO cells
5 | CC(C)=CCC/C(C)=C/CO [Geranyol] | > 2500 | 
6 | CC(C)=CCCC(C)=CCCC(C)=CCO [Farnesol] | > 2500 | 
7 | C[C@H](CCC(=O)O)[C@H]1CC[C@H]2[C@@H]3CC[C@@H]4C[C@H](O)CC[C@]4(C)[C@H]3C[C@H](O)[C@]12C [Deoxycholic acid] | > 2500 | 
8 | C[C@H](CCC(=O)O)[C@H]1CC[C@H]2[C@@H]3CC[C@@H]4C[C@H](O)CC[C@]4(C)[C@H]3CC[C@]12C [Lithocolic acid] | > 2500 | 
9 | C[C@H](CC(=O)O)[C@H]1CC[C@H]2[C@@H]3CC[C@@H]4C[C@H](O)CC[C@]4(C)[C@H]3C[C@H](O)[C@]12C [Nordeoxycholic acid] | > 2500 | 
10 | lysophosphatidic acid |  | level of cAMP production (TGR4 [2]): increased in the manner specific to CHO-TGR4; luciferase activity (TGR4 [3]; 1 μM): increase of luciferase activity was detected
11 | CC(C)=CCC/C(C)=C/CC/C(C)=C/CC/C(C)=C/COP(=O)(O)OP(=O)(O)O [Geranylgeranyl 2-phosphate, geranylgeranyl 2-phosphate] | 19 | concentration dependency of intracellular calcium ion mobilization activity (TGR4 [1]): activity dependent on concentration was perceived; cAMP production increasing activity dependent on concentration (TGR4 [2]): activity dependent on concentration was perceived; luciferase activity (TGR4 [3]; 0.1 μM): increase of luciferase activity was detected; luciferase activity (TGR4 [3]; 1 μM): increase of luciferase activity was detected
12 | CC(=O)CC/C=C(\C)CCC=C(C)C [Geranyl acetone] | > 2500 | 
13 | CC(C)=CCOP(=O)(O)OP(=O)(O)O [Dimethylaryl 2-phosphate] | > 2500 | 
14 | CC(C)=CCC/C(C)=C/CC/C(C)=C/CC/C(C)=C/CO [Geranylgeranyol] | > 2500 | 
15 | CC(C)=CCC/C(C)=C/COP(=O)(O)OP(=O)(O)O [Geranyl 2-phosphate] | > 2500 | 
16 | CC(C)=CCC/C(C)=C/CCl [Geranylchloride] | > 2500 | 
